From PubChem BioAssay AID2060908 (Molecular Pharmacology Branch, DTP, NCI, 2025)

System: 186277-243-T-J2-PDC complex spheroids, viability
Assay: Anticancer human tumor 186277-243-T-J2-PDC patient-derived colon adenocarcinoma cell line growth inhibition [RAS]
Details: for IC50: curve of first compound; for viability, T/C: stronger effect = lower value
Summary of the method: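 Tumour cells grown as complex spheroids with HUVEC endothelial cells and mesenchymal stem cells, treated with RAS pathway inhibitor combinations. Each agent spans half-log steps from near clinical Cmax, or 10 microM where Cmax is unknown.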

[1] = second compound 0.0316 µM, first compound 0.0316 µM
[2] = second compound 0.0316 µM, first compound 0.1 µM
[3] = second compound 0.0316 µM, first compound 0.316 µM
[4] = second compound 0.0316 µM, first compound 1 µM
[5] = second compound 0.1 µM, first compound 0.0316 µM
[6] = second compound 0.1 µM, first compound 0.1 µM
[7] = second compound 0.1 µM, first compound 0.316 µM
[8] = second compound 0.1 µM, first compound 1 µM
[9] = second compound 0.316 µM, first compound 0.0316 µM
[10] = second compound 0.316 µM, first compound 0.1 µM
[11] = second compound 0.316 µM, first compound 0.316 µM
[12] = second compound 0.316 µM, first compound 1 µM
[13] = second compound 1 µM, first compound 0.0316 µM
[14] = second compound 1 µM, first compound 0.1 µM
[15] = second compound 1 µM, first compound 0.316 µM
[16] = second compound 1 µM, first compound 1 µM
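Note: spheroids exposed to compounds for 7 days before viability read.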

CCc1c2c(nc3ccc(O)cc13)-c1cc3c(c(=O)n1C2)COC(=O)[C@]3(O)CC + CCn1c(-c2cccnc2C(C)OC)c2c3cc(ccc31)N1CCOC(CC(NC(=O)C(C(C)C)N(C)C(=O)C3(F)CCN(C(=O)C#CC(C)(C)N(C)C)CC3)C(=O)N3CCCC(N3)C(=O)OCC(C)(C)C2)C1
IC50 (second compound 0.000949 µM): 9.82 nM | IC50 (second compound 0.003 µM): 13.6 nM | IC50 (second compound 0.00949 µM): 11.1 nM | IC50 (second compound 0.03 µM): 10.2 nM | IC50 (second compound 0.0949 µM): 7.53 nM | IC50 (second compound 0.3 µM): 2.85 nM | viability, T/C (second compound 0.000949 µM, first compound 0.000949 µM): 157% | viability, T/C (second compound 0.000949 µM, first compound 0.003 µM): 83.7% | viability, T/C (second compound 0.000949 µM, first compound 0.00949 µM): 52.5% | viability, T/C (second compound 0.000949 µM, first compound 0.03 µM): 35.5% | viability, T/C (second compound 0.000949 µM, first compound 0.0949 µM): 17.3% | viability, T/C (second compound 0.000949 µM, first compound 0.3 µM): 12.1% | viability, T/C (second compound 0.003 µM, first compound 0.000949 µM): 142% | viability, T/C (second compound 0.003 µM, first compound 0.003 µM): 91.9% | viability, T/C (second compound 0.003 µM, first compound 0.00949 µM): 55.8% | viability, T/C (second compound 0.003 µM, first compound 0.03 µM): 37.4% | viability, T/C (second compound 0.003 µM, first compound 0.0949 µM): 18.2% | viability, T/C (second compound 0.003 µM, first compound 0.3 µM): 12.9% | viability, T/C (second compound 0.00949 µM, first compound 0.000949 µM): 142% | viability, T/C (second compound 0.00949 µM, first compound 0.003 µM): 85.4% | viability, T/C (second compound 0.00949 µM, first compound 0.00949 µM): 53.8% | viability, T/C (second compound 0.00949 µM, first compound 0.03 µM): 34.4% | viability, T/C (second compound 0.00949 µM, first compound 0.0949 µM): 15.9% | viability, T/C (second compound 0.00949 µM, first compound 0.3 µM): 12.1% | viability, T/C (second compound 0.03 µM, first compound 0.000949 µM): 139% | viability, T/C (second compound 0.03 µM, first compound 0.003 µM): 80.6% | viability, T/C (second compound 0.03 µM, first compound 0.00949 µM): 54.1% | viability, T/C (second compound 0.03 µM, first compound 0.03 µM): 33% | viability, T/C (second compound 0.03 µM, first compound 0.0949 µM): 17% | viability, T/C (second compound 0.03 µM, first compound 0.3 µM): 12.2% | viability, T/C (second compound 0.0949 µM, first compound 0.000949 µM): 102% | viability, T/C (second compound 0.0949 µM, first compound 0.003 µM): 68.6% | viability, T/C (second compound 0.0949 µM, first compound 0.00949 µM): 48% | viability, T/C (second compound 0.0949 µM, first compound 0.03 µM): 25% | viability, T/C (second compound 0.0949 µM, first compound 0.0949 µM): 15.1% | viability, T/C (second compound 0.0949 µM, first compound 0.3 µM): 10.3% | viability, T/C (second compound 0.3 µM, first compound 0.000949 µM): 69.7% | viability, T/C (second compound 0.3 µM, first compound 0.003 µM): 47.5% | viability, T/C (second compound 0.3 µM, first compound 0.00949 µM): 34% | viability, T/C (second compound 0.3 µM, first compound 0.03 µM): 17.7% | viability, T/C (second compound 0.3 µM, first compound 0.0949 µM): 10.5% | viability, T/C (second compound 0.3 µM, first compound 0.3 µM): 8.49%

CC(=O)OC12COC1CC(O)C1(C)C(=O)C(O)C3=C(C)C(OC(=O)C(O)C(NC(=O)OC(C)(C)C)c4ccccc4)CC(O)(C(OC(=O)c4ccccc4)C21)C3(C)C (stereo unspecified) + C=CC(=O)N1CCN(c2nc(OCC3CCCN3C)nc3c(F)c(-c4nc(N)cc(C)c4C(F)(F)F)c(Cl)cc23)C(C)C1
IC50 (second compound 0.00316 µM): < 31.6 nM | IC50 (second compound 0.01 µM): < 31.6 nM | IC50 (second compound 0.0316 µM): < 31.6 nM | IC50 (second compound 0.1 µM): < 31.6 nM | IC50 (second compound 0.316 µM): < 31.6 nM | IC50 (second compound 1 µM): < 31.6 nM | viability, T/C (second compound 0.00316 µM, first compound 0.0316 µM): 8.38% | viability, T/C (second compound 0.00316 µM, first compound 0.1 µM): 7.03% | viability, T/C (second compound 0.00316 µM, first compound 0.316 µM): 7.44% | viability, T/C (second compound 0.00316 µM, first compound 1 µM): 6.91% | viability, T/C (second compound 0.00316 µM, first compound 3.16 µM): 7.11% | viability, T/C (second compound 0.00316 µM, first compound 10 µM): 7.02% | viability, T/C (second compound 0.01 µM, first compound 0.0316 µM): 8.84% | viability, T/C (second compound 0.01 µM, first compound 0.1 µM): 6.99% | viability, T/C (second compound 0.01 µM, first compound 0.316 µM): 7.34% | viability, T/C (second compound 0.01 µM, first compound 1 µM): 7.25% | viability, T/C (second compound 0.01 µM, first compound 3.16 µM): 7.21% | viability, T/C (second compound 0.01 µM, first compound 10 µM): 6.02% | viability, T/C [1]: 8.72% | viability, T/C [2]: 7.79% | viability, T/C [3]: 7.18% | viability, T/C [4]: 7.01% | viability, T/C (second compound 0.0316 µM, first compound 3.16 µM): 6.46% | viability, T/C (second compound 0.0316 µM, first compound 10 µM): 5.97% | viability, T/C [5]: 8.28% | viability, T/C [6]: 7.95% | viability, T/C [7]: 8.02% | viability, T/C [8]: 7.09% | viability, T/C (second compound 0.1 µM, first compound 3.16 µM): 8.08% | viability, T/C (second compound 0.1 µM, first compound 10 µM): 6.87% | viability, T/C [9]: 8.75% | viability, T/C [10]: 8.38% | viability, T/C [11]: 10.2% | viability, T/C [12]: 8.18% | viability, T/C (second compound 0.316 µM, first compound 3.16 µM): 8.14% | viability, T/C (second compound 0.316 µM, first compound 10 µM): 6.78% | viability, T/C [13]: 12% | viability, T/C [14]: 9.42% | viability, T/C [15]: 9.31% | viability, T/C [16]: 8.34% | viability, T/C (second compound 1 µM, first compound 3.16 µM): 11.8% | viability, T/C (second compound 1 µM, first compound 10 µM): 9.17%

O=C(c1ccc(F)c(F)c1Nc1ccc(I)cc1F)N1CC(O)([C@@H]2CCCCN2)C1 + C#Cc1c(F)ccc2cc(O)cc(-c3ncc4c(N5CC6CCC(C5)N6)nc(OCC56CCCN5CC(F)C6)nc4c3F)c12
IC50 (second compound 0.0316 µM): 20.9 nM | IC50 (second compound 0.1 µM): 3.25 nM | IC50 (second compound 0.316 µM): < 3.16 nM | IC50 (second compound 1 µM): < 3.16 nM | IC50 (second compound 3.16 µM): < 3.16 nM | IC50 (second compound 10 µM): < 3.16 nM | viability, T/C (second compound 0.0316 µM, first compound 0.00316 µM): 72.4% | viability, T/C (second compound 0.0316 µM, first compound 0.01 µM): 56.3% | viability, T/C [1]: 47.1% | viability, T/C [2]: 15.4% | viability, T/C [3]: 5.69% | viability, T/C [4]: 6.25% | viability, T/C (second compound 0.1 µM, first compound 0.00316 µM): 50% | viability, T/C (second compound 0.1 µM, first compound 0.01 µM): 40.8% | viability, T/C [5]: 20% | viability, T/C [6]: 9.26% | viability, T/C [7]: 6.29% | viability, T/C [8]: 3.94% | viability, T/C (second compound 0.316 µM, first compound 0.00316 µM): 18.9% | viability, T/C (second compound 0.316 µM, first compound 0.01 µM): 17.5% | viability, T/C [9]: 10.5% | viability, T/C [10]: 9.19% | viability, T/C [11]: 4.54% | viability, T/C [12]: 3.72% | viability, T/C (second compound 1 µM, first compound 0.00316 µM): 12.6% | viability, T/C (second compound 1 µM, first compound 0.01 µM): 9.81% | viability, T/C [13]: 8.46% | viability, T/C [14]: 6.3% | viability, T/C [15]: 4.16% | viability, T/C [16]: 3.53% | viability, T/C (second compound 3.16 µM, first compound 0.00316 µM): 9% | viability, T/C (second compound 3.16 µM, first compound 0.01 µM): 9.32% | viability, T/C (second compound 3.16 µM, first compound 0.0316 µM): 7.86% | viability, T/C (second compound 3.16 µM, first compound 0.1 µM): 5.98% | viability, T/C (second compound 3.16 µM, first compound 0.316 µM): 3.91% | viability, T/C (second compound 3.16 µM, first compound 1 µM): 3.32% | viability, T/C (second compound 10 µM, first compound 0.00316 µM): 6.85% | viability, T/C (second compound 10 µM, first compound 0.01 µM): 7.33% | viability, T/C (second compound 10 µM, first compound 0.0316 µM): 5.34% | viability, T/C (second compound 10 µM, first compound 0.1 µM): 3.85% | viability, T/C (second compound 10 µM, first compound 0.316 µM): 2.37% | viability, T/C (second compound 10 µM, first compound 1 µM): 1.61%
